This is an account of results in US20080113938A1, “ACCELERATOR FOR MINERAL ABSORPTION AND USE THEREOF” (KABUSHIKI KAISHA HAYASHIBARA SEIBUTSU KAGAKU KENKYUJO, priority 2003, published 2008).

The assay concerns femur. The assay can be described thus: Dry weight, ash, calcium, magnesium and phosphorus of the femur of rats. Type of assay: in vivo, Wister rats. An excerpt: Forty of Wister rats weighing 110 to 120 g (five-weeks aged male, commercialized by Charles River Japan Inc., Yokohama, Japan) were bred with a feed containing ingredients (%) shown in Table 1 for one week in order to be familiarized. The familiarized rats were randomly divided into four groups with ten rats each. Each group was experimentally bred for eight weeks with either a feed without cyclic tetrasaccharide shown in Table 1 (hereinafter, it is called as “basic feed”), or another feed of basic feed supplemented with 1%, 2% or 5% on a dry solid basis, of cyclic tetrasaccharide in a crystalline anhydrous powder form with a purity of 99.5%, prepared in the following Example A-3. These basic feed and three kinds of feeds with cyclic tetrasaccharide were prepared to contain 44.75% of the total amount of cyclic tetrasaccharide and corn starch in each feed. From one week before the end of the breeding test, in order to determine the metabolism of calcium, magnesium, iron, sodium, potassium and phosphorus (hereinafter, may be called “minerals” in all), rats in the all groups were fed with the four types of feeds supplemented with 0.5% of chromium oxide as a non-absorbed marker for the minerals. The rats were bred at 25° C. in a manner of freely allowing to take feeds and water under a condition of 12 hours regular interval between of light and shade. After completion of experimental breeding, all rats were individually weighed to calculate the average of weight and further calculate the rate of increased weight for each group.
Two days before the end of the breeding test, rats were placed into a gauge for measuring metabolism to collect their excrement in two days. The resulting excrement was subjected to the measurement of the contents of cyclic tetrasaccharide, each mineral, and chromium. After the breeding test, the rats were anatomized in an anesthetized condition to take out their alimentary canals including jejunum, intestinum ileum, appendix and colon/rectum. After the resulting alimentary canals were weighed, their contents were also weighed and subjected to the measurement of the amount of cyclic tetrasaccharide, minerals and chromium. The rats, which had been taken out their alimentary canals, were dislocated at their cervical vertebrae and taken out their femurs from right legs. The resulting femurs were subjected to the measurement of the amount of ashes, calcium, magnesium and phosphorus. The following(s) explain the methods of quantitative analysis of cyclic tetrasaccharide and the methods of measurement of minerals and chromium.
Two grams of a feed was preciously weighed in a porcelain crucible, heated to carbonize, and heated at 600° C. to incinerate. After weighed, the resulting test samples were admixed with hydrochloric acid in a precious analysis grade (concentration of 20%, commercialized by Wako Pure Chemicals, Co., Ltd., Osaka, Japan) to give a final concentration of 1%. They were subjected to atomic absorption spectrometry (“Zeeman5100™”, commercialized by PerkinElmer); in the case of measurement of chromium, they were subjected to a flameless type one. In the case of measurement of phosphorus, they were subjected to usual molybdenum blue absorptiometry. On the other hand, 0.1 g of each of the contents of jejunum, intestinum ileum, appendix, colon/rectum, and excrement was subjected to wet-type incineration to prepare test samples similarly as in the above case of feed, and the test samples were quantified. The right femurs taken out from the anatomized rats were dried at 105° C. for 15 hours and measured as a dry weight. The resulting dried femurs were precisely weighed in a porcelain crucible, and incinerated similarly as in the case of the feed. The resultants were weighed and quantified for calcium, magnesium and phosphorus.

[1] abbreviates: feed supplemented with 1% cyclic tetrasaccharide.
The mark [2] stands for this setting: feed supplemented with 2% cyclic tetrasaccharide.
Setting [3] is: feed supplemented with 5% cyclic tetrasaccharide.

Marks after values point to notes of the source that are not given here.

Turning to `OC[C@H]1O[C@@H]2OC[C@H]3O[C@H](O[C@@H]4[C@@H](O)[C@@H](OC[C@H]5O[C@H](O[C@H]([C@H]2O)[C@@H]1O)[C@H](O)[C@@H](O)[C@@H]5O)O[C@H](CO)[C@H]4O)[C@H](O)[C@@H](O)[C@@H]3O` [cyclic tetrasaccharide, cyclo{>6)-α-D-glucopyranosyl-(1>3)-α-D-glucopyranosyl-(1>6)-α-D-glucopyranosyl-(1>3)-α-D-glucopyranosyl-(1>}], the “amounts of dried bone weight, ash, calcium, magnesium and phosphorus” value (comparing with the control, 1%, 2%, 5% feeds) was “significantly increased”. Also, under setting [1], the Amount of ash is given as 0.64 * g/g dry femur, the “Amount of calcium in femur” value is recorded as 217 * ^ mg/g dry femur, the “Amount of magnesium in femur” value is reported as 4.3 * mg/g dry femur and the “Amount of phosphorus in femur” value was 115 * ^ mg/g dry femur. For the same molecule, under setting [1], the “Dry weight of femur” value was 0.68 * g. Also, under setting [2], the Amount of ash is 0.65 * g/g dry femur, the “Amount of calcium in femur” value was 225 * ^ mg/g dry femur, the “Amount of magnesium in femur” value is given as 4.4 * mg/g dry femur and the “Amount of phosphorus in femur” value is listed as 116 * ^ mg/g dry femur. Further, the “Dry weight of femur” value under setting [2] was 0.71 * g. Under setting [3], the Amount of ash is given as 0.66 * g/g dry femur, the “Amount of calcium in femur” value was 240 * ^ mg/g dry femur, the “Amount of magnesium in femur” value is reported as 4.5 * mg/g dry femur and the “Amount of phosphorus in femur” value was 118 * ^ mg/g dry femur. Besides, under setting [3], the “Dry weight of femur” value was 0.71 * g.
